Data from paper PMC7699892, “Repositioned Drugs for Chagas Disease Unveiled via Structure-Based Drug Repositioning” (International Journal of Molecular Sciences, 2020).

Assays:
T. cruzi = tested on: T. cruzi; set-up: method as in per drug in column Reference of Table 2; settings: class of literature evidence of trypanocidal activity; ref per drug in Table 2; cited from earlier work; note: key: ? indicates unknown activity; + indicates indirect evidence of activity; ++ indicates direct evidence of activity
[1] = tested on: T. cruzi blood trypomastigote (Ninoa strain); test: ex vivo evaluation against blood trypomastigotes, Ninoa strain; assay type: cell-based; settings: Trypanosoma cruzi, 24 h at 4 °C
From the text: (§1) The high-priority hit drugs were subjected to experimental validation in vitro, ex vivo, and in vivo, together with a cytotoxicity assay. Ninoa and INC-5 strains of T. cruzi were used in this study. The Ninoa strain was obtained in 1986 by xenodiagnoses from an acute case of Chagas’ disease in Oaxaca, Mexico, whereas the INC-5 strain was obtained in 1997 from a chronic case of Chagas’ disease in a person in Guanajuato, Mexico.
(§2) Ex vivo evaluation of different FDA-approved drugs against Trypanosoma cruzi blood trypomastigotes. The ex vivo evaluation of the trypanocidal activity of the FDA-approved drugs was carried out according to the methodology described above. Blood from parasite infected animals was obtained from intracardiac puncture and diluted with phosphate-buffered saline (PBS), pH 7.2, until a concentration of 2 × 10^6 blood trypomastigotes/mL was obtained. From this, 195 µL of blood/well was placed in a 96-well plate and incubated at 4 °C for 24 h with 5 µL of each drug tested at different concentrations (5 µg/mL to […]). […] After incubation, live parasites were counted in a Neubauer chamber and the IC50 was calculated. Three independent experiments by triplicate were performed.

[2] = tested on: T. cruzi epimastigote (INC-5 strain); test: in vitro evaluation against epimastigotes, INC-5 strain (resazurin); assay type: cell-based; settings: Trypanosoma cruzi, 48 h at 28 °C
From the text: (§3) The high-priority hit drugs were subjected to experimental validation in vitro, ex vivo, and in vivo, together with a cytotoxicity assay. Ninoa and INC-5 strains of T. cruzi were used in this study. […] In vitro evaluation of different FDA-approved drugs against Trypanosoma cruzi epimastigotes. The epimastigote stage of Ninoa and INC5 strains of T. cruzi were used to evaluated the in vitro trypanocidal activity of different FDA-approved drugs. Both strains were maintained in liver infusion tryptose (LIT) medium, supplemented with 10% fetal bovine serum (FBS) and 0.1% penicillin–streptomycin. They were preserved by transferring 1 × 10^6 parasites/mL into a new culture medium every week. […] All compounds were initially prepared at 10 mg/mL, using dimethyl sulfoxide (DMSO) as diluent. Serial dilutions were performed using complemented LIT medium until concentrations of 100 to 0.46 µg/mL of each drug were obtained. […] After the incubation period, 20 µL of 2.5 mM resazurin solution were added to each well and incubated for 3 h. All assays were carried out in triplicate.

[3] = tested on: T. cruzi blood trypomastigote (INC-5 strain); test: ex vivo evaluation against blood trypomastigotes, INC-5 strain; assay type: cell-based; settings: Trypanosoma cruzi; ex vivo, INC-5 strain, 24 h at 4 °C; read-out: T.cruzi blood trypomastigote IC50 INC-5
From the text: as §1, §2

[4] = tested on: T. cruzi epimastigote (Ninoa strain); test: in vitro evaluation against epimastigotes, Ninoa strain (resazurin); assay type: cell-based; settings: Trypanosoma cruzi, 48 h at 28 °C
From the text: as §3

T. cruzi INC-5 strain = test: in vivo short-term trypanocidal activity (parasitemia) in infected CD1 mice, INC-5 strain; set-up: species or system Trypanosoma cruzi in CD1 mice; settings: for Parasitemia inhibition percentage over the time, 2 horas INC-5 / Parasitemia inhibition percentage over the time, 4 horas INC-5 / Parasitemia inhibition percentage over the time, 6 horas INC-5: 100 mg/kg oral; for parasitemia inhibition: mice infected with INC-5 strain, single oral dose 100 mg/kg, eight hours after administration
Protocol: (§4) Parasitemia was monitored at 2, 4, 6, and 8 h after administration (see Figure 2).
(§5) CD1 strain mice, 6–8 weeks old, were used to maintain Ninoa and INC-5 strains of T. cruzi. Animals were given by the University of Science and Arts of Chiapas. To maintain the strains, animals were intraperitoneally inoculated every 14 days with 1 × 10^5 blood trypomastigote, obtained from parasite-infected mice. Parasitemia was monitored every three days by the Pizzi method. For this, 5 µL of blood from the caudal vein of infected mice were deposited on a slide and evenly distributed with an 18 × 18 mm coverslip. Parasite counting was performed by observing 15 microscopic fields using a 40 × objective lens. For the in vivo short term evaluation of the trypanocidal activity of the FDA-approved drugs, six groups of six CD1 mice each with homogeneous weight and parasitemia were used.
(§6) In vivo short-term evaluation of the trypanocidal activity of the FDA-approved drugs. Six groups of six CD1 female mice were infected with blood trypomastigotes of Ninoa and INC-5 strains following the methodology previously described in Romanha et al. and in Díaz-Chiguer et al.. At day 13 post-infection, when the infected mice reached an average of 5 × 10^6 parasites/mL, a single dose of the FDA-approved drugs at 100 mg/kg body weight was orally administered. Parasitemia was monitored following the Pizzi method at 2, 4, 6, and 8 h post-treatment […] using mineral oil as a vehicle. […] Mice examination was performed as stated in the Norma Official Mexicana (NOM-062-Z00-1999), published on August 2009.

T. cruzi Ninoa strain = test: in vivo short-term trypanocidal activity (parasitemia) in infected CD1 mice, Ninoa strain; set-up: species or system Trypanosoma cruzi in CD1 mice; settings: for Parasitemia inhibition percentage over the time, 2 horas Ninoa / Parasitemia inhibition percentage over the time, 4 horas Ninoa / Parasitemia inhibition percentage over the time, 6 horas Ninoa: 100 mg/kg oral; for parasitemia inhibition: mice infected with Ninoa strain, single oral dose 100 mg/kg, eight hours after administration
Protocol: as §4, §5, §6

[5] = 6 horas (first column so headed)
[6] = 6 horas (second, last column so headed)

SMILES	Trypan. Activity (T. cruzi)	IC50 [1] [µM]	IC50 [2] [µM]	IC50 [3] [µM]	other results
COc1cccc2c1C(=O)c1c(O)c3c(c(O)c1C2=O)C[C@@](O)(C(C)=O)C[C@@H]3O[C@H]1C[C@H](N)[C@H](O)[C@H](C)O1 [Aunomycin]	+				
O=C(Cn1ccnc1[N+](=O)[O-])NCc1ccccc1 [Benznidazole]		156 ± 0.11	19.9 ± 0.23	130.6 ± 0.08	
O=C(O)c1ccccc1 [Benzoic acid]	++				
Cc1ccc(-c2cc(C(F)(F)F)nn2-c2ccc(S(N)(=O)=O)cc2)cc1 [Celecoxib]		> 100	> 400	> 100	IC50 [4]: > 400 µM
CN(C)CCCC1(c2ccc(F)cc2)OCc2cc(C#N)ccc21 (stereo not shown) [Citalopram]	++				
Nc1nc(=O)c2nc(CNc3ccc(C(=O)N[C@@H](CCC(=O)O)C(=O)O)cc3)cnc2[nH]1 [Folic acid]		28.1 ± 0.01	> 400	21.5 ± 0.03	IC50 [4]: > 400 µM; Parasitemia inhibition percentage over the time, 2 horas INC-5 (T. cruzi INC-5 strain): 100; Parasitemia inhibition percentage over the time, 4 horas INC-5 (T. cruzi INC-5 strain): 50; Parasitemia inhibition percentage over the time, 6 horas INC-5 (T. cruzi INC-5 strain; [5]): 33.3; Parasitemia inhibition percentage over the time, 6 horas INC-5 (T. cruzi INC-5 strain; [6]): 33.3; parasitemia inhibition (T. cruzi INC-5 strain): 66.7%; Parasitemia inhibition percentage over the time, 2 horas Ninoa (T. cruzi Ninoa strain): 100; Parasitemia inhibition percentage over the time, 4 horas Ninoa (T. cruzi Ninoa strain): 71; Parasitemia inhibition percentage over the time, 6 horas Ninoa (T. cruzi Ninoa strain; [5]): 42.8; Parasitemia inhibition percentage over the time, 6 horas Ninoa (T. cruzi Ninoa strain; [6]): 42.8; parasitemia inhibition (T. cruzi Ninoa strain): 57.2%
O=C(O)P(=O)(O)O [Foscarnet]	++				
N[C@@H](CCC(=O)N[C@@H](CS)C(=O)NCC(=O)O)C(=O)O [Glutathione]		> 100	> 400	> 100	IC50 [4]: > 400 µM
CC1=C(/C=C/C(C)=C/C=C/C(C)=C\C(=O)O)C(C)(C)CCC1 [Isotretinoin]	++				
Nc1nc2c(c(=O)[nH]1)N(C=O)C(CNc1ccc(C(=O)N[C@@H](CCC(=O)O)C(=O)O)cc1)CN2 (stereo partly shown) [Leucovorin]		> 100	> 400	> 100	IC50 [4]: > 400 µM
CC12CC3CC(C)(C1)CC(N)(C3)C2 [Memantine]	++				
CN(C)c1ccc(O)c2c1C[C@H]1C[C@H]3[C@H](N(C)C)C(O)=C(C(N)=O)C(=O)[C@@]3(O)C(O)=C1C2=O [Minocycline]	++				
COc1ccc2cc([C@H](C)C(=O)O)ccc2c1 [Naproxen]		58.5 ± 0.07	> 400	38.3 ± 0.06	IC50 [4]: > 400 µM; Parasitemia inhibition percentage over the time, 2 horas INC-5 (T. cruzi INC-5 strain): 100; Parasitemia inhibition percentage over the time, 4 horas INC-5 (T. cruzi INC-5 strain): 85.7; Parasitemia inhibition percentage over the time, 6 horas INC-5 (T. cruzi INC-5 strain; [5]): 71.4; Parasitemia inhibition percentage over the time, 6 horas INC-5 (T. cruzi INC-5 strain; [6]): 57.1; parasitemia inhibition (T. cruzi INC-5 strain): 42.9%; Parasitemia inhibition percentage over the time, 2 horas Ninoa (T. cruzi Ninoa strain): 100; Parasitemia inhibition percentage over the time, 4 horas Ninoa (T. cruzi Ninoa strain): 71; Parasitemia inhibition percentage over the time, 6 horas Ninoa (T. cruzi Ninoa strain; [5]): 28.5; Parasitemia inhibition percentage over the time, 6 horas Ninoa (T. cruzi Ninoa strain; [6]): 14.2; parasitemia inhibition (T. cruzi Ninoa strain): 85.8%
NC(=O)c1cccnc1 [Nicotinamide]	++				
CC1CS(=O)(=O)CCN1/N=C/c1ccc([N+](=O)[O-])o1 (stereo not shown) [Nifurtimox]		167.1 ± 0.03	6.47 ± 0.42	115.2 ± 0.17	IC50 [4]: 7.09 ± 0.12 µM; Parasitemia inhibition percentage over the time, 2 horas INC-5 (T. cruzi INC-5 strain): 100; Parasitemia inhibition percentage over the time, 4 horas INC-5 (T. cruzi INC-5 strain): 66.6; Parasitemia inhibition percentage over the time, 6 horas INC-5 (T. cruzi INC-5 strain; [5]): 55.5; Parasitemia inhibition percentage over the time, 6 horas INC-5 (T. cruzi INC-5 strain; [6]): 27.7; parasitemia inhibition (T. cruzi INC-5 strain): 72.3%; Parasitemia inhibition percentage over the time, 2 horas Ninoa (T. cruzi Ninoa strain): 100; Parasitemia inhibition percentage over the time, 4 horas Ninoa (T. cruzi Ninoa strain): 50; Parasitemia inhibition percentage over the time, 6 horas Ninoa (T. cruzi Ninoa strain; [5]): 27.0; Parasitemia inhibition percentage over the time, 6 horas Ninoa (T. cruzi Ninoa strain; [6]): 22.2; parasitemia inhibition (T. cruzi Ninoa strain): 77.8%
CC(=O)O[C@H]1C(=O)[C@@]2(C)[C@H]([C@H](OC(=O)c3ccccc3)[C@]3(O)C[C@H](OC(=O)[C@H](O)[C@@H](NC(=O)c4ccccc4)c4ccccc4)C(C)=C1C3(C)C)[C@]1(OC(C)=O)CO[C@@H]1C[C@@H]2O [Paclitaxel]	++				
Nc1nc2[nH]cc(CCc3ccc(C(=O)N[C@@H](CCC(=O)O)C(=O)O)cc3)c2c(=O)[nH]1 [Pemetrexed]	+				
CC(=O)CCCCn1c(=O)c2c(ncn2C)n(C)c1=O [Pentoxifylline]	+	> 100	> 400	> 100	IC50 [4]: > 400 µM
CC(=O)[C@H]1CC[C@H]2[C@@H]3CCC4=CC(=O)CC[C@]4(C)[C@H]3CC[C@]12C [Progesterone]	+				
C=C[C@H]1C[N@@]2CC[C@H]1C[C@H]2[C@H](O)c1ccnc2ccc(OC)cc12 [Quinine]	++				
CC(N)C12CC3CC(CC(C3)C1)C2 (stereo not shown) [Rimantadine]	++				
CC(C)(C)NC(=O)[C@@H]1C[C@@H]2CCCC[C@@H]2CN1C[C@@H](O)[C@H](Cc1ccccc1)NC(=O)[C@H](CC(N)=O)NC(=O)c1ccc2ccccc2n1 [Saquinavir]	++				
Cn1c(=O)c2[nH]cnc2n(C)c1=O [Theophylline]		> 100	> 400	> 100	IC50 [4]: > 400 µM
CSc1ccc2c(c1)N(CCC1CCCCN1C)c1ccccc1S2 (stereo not shown) [Thioridazine]	++				
Nc1nc2nc[nH]c2c(=S)[nH]1 [Tioguanine]	++				
Nc1nc(N)c2nc(-c3ccccc3)c(N)nc2n1 [Triamterene]	++				
COc1cc(Cc2cnc(N)nc2N)cc(OC)c1OC [Trimethoprim]	++				
CC(=O)N[C@H]1[C@H]([C@H](O)[C@H](O)CO)OC(C(=O)O)=C[C@@H]1N=C(N)N [Zanamivir]	++				
